Reference: US8951964B2, “Phenanthridine macrocyclic hepatitis C serine protease inhibitors” (priority 2010, dated 2015)

Key:
Format in all cases: cell-based, HCV
[1] = system: genotype 3a NS3 gene in transient replicon; experiment: 3a transient replicon (luciferase reporter); conditions: Hepatitis C virus, Huh-7, read-out: 3a transient replicon (nM)
[2] = system: genotype 1b replicon (1b-Con1, 1b-N); experiment: 1b stable replicon (luciferase reporter); conditions: Hepatitis C virus, HuH-7 cells, 5% FBS
[3] = system: genotype 1a transient replicon (1a-H77); experiment: 1a transient replicon (luciferase reporter); conditions: Hepatitis C virus, HuH-7 cells, 5% FBS
[4] = system: genotype 1a replicon (1a-H77); experiment: 1a stable replicon (luciferase reporter); conditions: Hepatitis C virus, Huh-7, luciferase reporter, HuH-7 cells, 5% FBS
[5] = system: genotype 1b transient replicon; experiment: 1b transient replicon (luciferase reporter); conditions: Hepatitis C virus, HuH-7 cells, 5% FBS

| Structure (SMILES) | EC50 [1] [nM] | EC50 [2] [pM] | EC50 [3] [pM] | EC50 [4] [pM] | EC50 [5] [pM] |
| --- | --- | --- | --- | --- | --- |
| Cc1cc(C(=O)N[C@H]2CCCCC/C=C\[C@@H]3C[C@@]3(C(=O)NS(=O)(=O)C3CC3)NC(=O)[C@@H]3C[C@@H](Oc4nc5cc(F)ccc5c5cc(F)ccc45)CN3C2=O)no1 | > 1 | 100 to 500 | 100 to 500 | 100 to 500 | 100 to 500 |
| Cc1cc(C(=O)N[C@H]2CCCCC/C=C\[C@@H]3C[C@@]3(C(=O)NS(=O)(=O)C3(C)CC3)NC(=O)[C@@H]3C[C@@H](Oc4nc5cc(F)ccc5c5ccccc45)CN3C2=O)no1 | > 1 | 100 to 500 | < 100 | 100 to 500 | 100 to 500 |
| Cc1cc(C(=O)N[C@H]2CCCCC/C=C\[C@@H]3C[C@@]3(C(=O)NS(=O)(=O)C3CC3)NC(=O)[C@@H]3C[C@@H](Oc4nc5cccc(F)c5c5ccccc45)CN3C2=O)no1 | > 1 | 100 to 500 | < 100 | 500 to 1000 | 100 to 500 |
| Cc1cc(C(=O)N[C@H]2CCCCC/C=C\[C@@H]3C[C@@]3(C(=O)NS(=O)(=O)C3CC3)NC(=O)[C@@H]3C[C@@H](Oc4nc5ccccc5c5ccc(F)cc45)CN3C2=O)no1 | > 1 | 100 to 500 | < 100 | 100 to 500 | 100 to 500 |
| Cc1cc(C(=O)N[C@H]2CCCCC/C=C\[C@@H]3C[C@@]3(C(=O)NS(=O)(=O)C3CC3)NC(=O)[C@@H]3C[C@@H](Oc4nc5cc(F)c(F)cc5c5ccc(OC(F)(F)F)cc45)CN3C2=O)no1 | > 1 | 500 to 1000 | < 100 | 500 to 1000 | < 100 |
| CC1(S(=O)(=O)NC(=O)[C@@]23C[C@H]2/C=C\CCCCC[C@H](NC(=O)[C@H](O)C(F)(F)F)C(=O)N2C[C@H](Oc4nc5cc(F)ccc5c5ccccc45)C[C@H]2C(=O)N3)CC1 | > 1 | 100 to 500 | < 100 | 100 to 500 | < 100 |
| Cc1cc(C(=O)N[C@H]2CCCCC/C=C\[C@@H]3C[C@@]3(C(=O)NS(=O)(=O)C3(C)CC3)NC(=O)[C@@H]3C[C@@H](Oc4nc5ccccc5c5ccc(F)cc45)CN3C2=O)no1 | > 1 | 500 to 1000 | < 100 | 500 to 1000 | 100 to 500 |
| Cn1ccc(C(=O)N[C@H]2CCCCC/C=C\[C@@H]3C[C@@]3(C(=O)NS(=O)(=O)C3(C)CC3)NC(=O)[C@@H]3C[C@@H](Oc4nc5cc(F)ccc5c5ccccc45)CN3C2=O)n1 | 0.1 to 0.5 | 100 to 500 | 100 to 500 | 500 to 1000 | 100 to 500 |
| Cc1cc(C(=O)N[C@H]2CCCCC/C=C\[C@@H]3C[C@@]3(C(=O)NS(=O)(=O)C3(C)CC3)NC(=O)[C@@H]3C[C@@H](Oc4nc5ccccc5c5cc(F)ccc45)CN3C2=O)no1 | > 1 | 100 to 500 |  | 500 to 1000 |  |
| COc1ccc2c(c1)c(O[C@@H]1C[C@H]3C(=O)N[C@]4(C(=O)NS(=O)(=O)C5CC5)C[C@H]4/C=C\CCCCC[C@H](NC(=O)c4cc(C)on4)C(=O)N3C1)nc1ccccc12 | > 1 | 500 to 1000 | < 100 | 100 to 500 | 100 to 500 |
| Cn1ccc(C(=O)N[C@H]2CCCCC/C=C\[C@@H]3C[C@@]3(C(=O)NS(=O)(=O)C3(C)CC3)NC(=O)[C@@H]3C[C@@H](Oc4nc5ccccc5c5ccc(F)cc45)CN3C2=O)n1 | 0.5 to 1 | < 100 | 100 to 500 | 100 to 500 | 100 to 500 |
| Cn1ccc(C(=O)N[C@H]2CCCCC/C=C\[C@@H]3C[C@@]3(C(=O)NS(=O)(=O)C3(C)CC3)NC(=O)[C@@H]3C[C@@H](Oc4nc5ccccc5c5cc(F)ccc45)CN3C2=O)n1 | 0.5 to 1 | 100 to 500 | 100 to 500 | 500 to 1000 | 100 to 500 |
| CC1(S(=O)(=O)NC(=O)[C@@]23C[C@H]2/C=C\CCCCC[C@H](NC(=O)c2cncs2)C(=O)N2C[C@H](Oc4nc5cc(F)ccc5c5ccccc45)C[C@H]2C(=O)N3)CC1 | > 1 | 500 to 1000 | < 100 | 500 to 1000 | 100 to 500 |
| COc1ccc2c(c1)c(O[C@@H]1C[C@H]3C(=O)N[C@]4(C(=O)NS(=O)(=O)C5CC5)C[C@H]4/C=C\CCCCC[C@H](NC(=O)c4cc(C)on4)C(=O)N3C1)nc1cc(F)ccc12 | > 1 | 500 to 1000 |  | 500 to 1000 |  |
| COc1ccc2c(c1)c(O[C@@H]1C[C@H]3C(=O)N[C@]4(C(=O)NS(=O)(=O)C5CC5)C[C@H]4/C=C\CCCCC[C@H](NC(=O)c4cc(C)on4)C(=O)N3C1)nc1cc(OC(F)(F)F)ccc12 | 0.5 to 1 | 100 to 500 | < 100 | 500 to 1000 | < 100 |
| Cc1cc(C(=O)N[C@H]2CCCCC/C=C\[C@@H]3C[C@@]3(C(=O)NS(=O)(=O)C3CC3)NC(=O)[C@@H]3C[C@@H](Oc4nc5cc(OC(F)(F)F)ccc5c5ccccc45)CN3C2=O)no1 | 0.5 to 1 | 100 to 500 | < 100 | 500 to 1000 | < 100 |

| Structure (SMILES) | EC50 [1] [nM] | EC50 [2] [pM] | EC50 [3] [pM] | EC50 [4] [pM] | EC50 [5] [pM] |
| --- | --- | --- | --- | --- | --- |
| Cc1cc(C(=O)N[C@H]2CCCCC/C=C\[C@@H]3C[C@@]3(C(=O)NS(=O)(=O)C3(C)CC3)NC(=O)[C@@H]3C[C@@H](Oc4nc5cc(OC(F)(F)F)ccc5c5ccccc45)CN3C2=O)no1 | > 1 | 100 to 500 | 100 to 500 | 500 to 1000 | 100 to 500 |
| Cc1cc(C(=O)N[C@H]2CCCCC/C=C\[C@@H]3C[C@@]3(C(=O)NS(=O)(=O)C3CC3)NC(=O)[C@@H]3C[C@@H](Oc4nc5ccccc5c5cccc(F)c45)CN3C2=O)no1 | > 1 | 100 to 500 | < 100 | 100 to 500 | 100 to 500 |
| CC1(S(=O)(=O)NC(=O)[C@@]23C[C@H]2/C=C\CCCCC[C@H](NC(=O)c2cscn2)C(=O)N2C[C@H](Oc4nc5cc(F)ccc5c5cc(F)ccc45)C[C@H]2C(=O)N3)CC1 | > 1 | 100 to 500 | < 100 | 500 to 1000 | 100 to 500 |
| CC1(S(=O)(=O)NC(=O)[C@@]23C[C@H]2/C=C\CCCCC[C@H](NC(=O)c2cncs2)C(=O)N2C[C@H](Oc4nc5cc(F)ccc5c5cc(F)ccc45)C[C@H]2C(=O)N3)CC1 | > 1 | 100 to 500 | < 100 | > 1000 | 100 to 500 |
| CC1(S(=O)(=O)NC(=O)[C@@]23C[C@H]2/C=C\CCCCC[C@H](NC(=O)c2cscn2)C(=O)N2C[C@H](Oc4nc5ccccc5c5cc(F)ccc45)C[C@H]2C(=O)N3)CC1 | > 1 | 100 to 500 | 100 to 500 | 500 to 1000 | 100 to 500 |
| CC1(S(=O)(=O)NC(=O)[C@@]23C[C@H]2/C=C\CCCCC[C@H](NC(=O)c2cncs2)C(=O)N2C[C@H](Oc4nc5ccccc5c5cc(F)ccc45)C[C@H]2C(=O)N3)CC1 | > 1 | 100 to 500 | < 100 | 500 to 1000 | 100 to 500 |
| CC1(S(=O)(=O)NC(=O)[C@@]23C[C@H]2/C=C\CCCCC[C@H](NC(=O)c2ccns2)C(=O)N2C[C@H](Oc4nc5cc(F)ccc5c5ccccc45)C[C@H]2C(=O)N3)CC1 | > 1 | 100 to 500 | < 100 | 500 to 1000 | 100 to 500 |
| CC1(S(=O)(=O)NC(=O)[C@@]23C[C@H]2/C=C\CCCCC[C@H](NC(=O)c2ccon2)C(=O)N2C[C@H](Oc4nc5cc(F)ccc5c5ccccc45)C[C@H]2C(=O)N3)CC1 | 0.5 to 1 | 100 to 500 | < 100 | 100 to 500 | 100 to 500 |
| CC1(S(=O)(=O)NC(=O)[C@@]23C[C@H]2/C=C\CCCCC[C@H](NC(=O)[C@@H](O)C(F)(F)F)C(=O)N2C[C@H](Oc4nc5cc(F)ccc5c5ccccc45)C[C@H]2C(=O)N3)CC1 | > 1 | 100 to 500 | < 100 | 500 to 1000 | 100 to 500 |
| Cc1cc(C(=O)N[C@H]2CCCCC/C=C\[C@@H]3C[C@@]3(C(=O)NS(=O)(=O)C3CC3)NC(=O)[C@@H]3C[C@@H](Oc4nc5cc(F)ccc5c5ccccc45)CN3C2=O)no1 | > 1 | 100 to 500 |  | 100 to 500 |  |
| Cn1ccc(C(=O)N[C@H]2CCCCC/C=C\[C@@H]3C[C@@]3(C(=O)NS(=O)(=O)C3CC3)NC(=O)[C@@H]3C[C@@H](Oc4nc5cc(F)ccc5c5ccccc45)CN3C2=O)n1 |  | < 100 | 100 to 500 | 100 to 500 | 100 to 500 |
| CC1(S(=O)(=O)NC(=O)[C@@]23C[C@H]2/C=C\CCCCC[C@H](NC(=O)c2ccn(C(F)F)n2)C(=O)N2C[C@H](Oc4nc5cc(F)ccc5c5ccccc45)C[C@H]2C(=O)N3)CC1 |  | 100 to 500 | 100 to 500 | 500 to 1000 | 100 to 500 |
| Cn1ccc(C(=O)N[C@H]2CCCCC/C=C\[C@@H]3C[C@@]3(C(=O)NS(=O)(=O)C3CC3)NC(=O)[C@@H]3C[C@@H](Oc4nc5cc(F)ccc5c5cc(F)ccc45)CN3C2=O)n1 |  | < 100 | 100 to 500 | 500 to 1000 | 100 to 500 |
| Cn1ccc(C(=O)N[C@H]2CCCCC/C=C\[C@@H]3C[C@@]3(C(=O)NS(=O)(=O)C3CC3)NC(=O)[C@@H]3C[C@@H](Oc4nc5cccc(F)c5c5ccccc45)CN3C2=O)n1 |  | < 100 | 500 to 1000 | 500 to 1000 | 100 to 500 |
| Cn1ccc(C(=O)N[C@H]2CCCCC/C=C\[C@@H]3C[C@@]3(C(=O)NS(=O)(=O)C3CC3)NC(=O)[C@@H]3C[C@@H](Oc4nc5ccccc5c5cccc(F)c45)CN3C2=O)n1 |  | < 100 | 100 to 500 | 500 to 1000 | 500 to 1000 |
| COc1ccc2c(c1)nc(O[C@@H]1C[C@H]3C(=O)N[C@]4(C(=O)NS(=O)(=O)C5CC5)C[C@H]4/C=C\CCCCC[C@H](NC(=O)c4cc(C)on4)C(=O)N3C1)c1ccc(F)cc12 | > 1 | 100 to 500 |  | 100 to 500 |  |
